In doi:10.1101/2020.04.05.026310v1 (biorxiv, 2020):
One block for each molecule: values may come before it.

Legend:
[1] = target: T1, mPDXK (mouse pyridoxal kinase) (Mus musculus, UniProt Q8K183); test: photometric PLP formation at […] nm, Dixon plot; assay type: biochemical
T1 sequence (Q8K183 1-312): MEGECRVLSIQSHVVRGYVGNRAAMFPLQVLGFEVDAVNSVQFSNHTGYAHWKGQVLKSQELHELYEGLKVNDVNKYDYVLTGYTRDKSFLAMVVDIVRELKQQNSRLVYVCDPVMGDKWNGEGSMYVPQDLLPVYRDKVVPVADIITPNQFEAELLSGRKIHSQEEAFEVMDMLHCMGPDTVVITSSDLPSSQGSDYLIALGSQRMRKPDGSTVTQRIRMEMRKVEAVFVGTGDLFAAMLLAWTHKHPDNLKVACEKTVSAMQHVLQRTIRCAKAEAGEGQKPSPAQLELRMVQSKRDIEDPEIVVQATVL

[2] = target: T1, mPDXK (mouse pyridoxal kinase); test: photometric PLP formation at […] nm, nonlinear variable-slope fit; assay type: biochemical
purified protein = substrate: Cc1ncc(CO)c(C=O)c1O; test: purified protein; assay type: biochemical, Mus musculus; conditions: 1 mM ATP, 1 mM MgCl2, 100 mM KCl, 10 mM Hepes pH 7.3, 37 °C

Molecule: C[C@@H]1CC[C@H]2[C@@H](C)C(=O)O[C@@H]3O[C@@]4(C)CC[C@@H]1[C@]32OO4 [artemisinin]
Ki [1]: 120 ± 2.4 µM | IC50 [2]: 229 ± 1.3 µM

Ki [1]: 1250 ± 4.7 µM | IC50 [2]: 1445 ± 1.4 µM
Molecule: C[C@H]1[C@H](OC(=O)CCC(=O)O)O[C@@H]2O[C@@]3(C)CC[C@H]4[C@H](C)CC[C@@H]1[C@@]24OO3 [artesunate]

B1: mPDXK (mouse pyridoxal kinase) (Mus musculus) (protein)
chain: T1 sequence (Q8K183 1-312)
Km (purified protein): 26.0 ± 5.4 µM | kcat (purified protein): 0.1436 ± 0.003 s⁻¹
